PubChem BioAssay (NCI)
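Protocol summary: plate cells (96-well), add compound at 5 concentrations, incubate 48 h, interpolate endpoints linearly. TGI: concentration producing complete growth inhibition.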

Experiments:
Experiment in all cases: NCI anticancer screen, dose series, 48 h
K-562 leukemia = tested on: K-562 leukemia
SNB-19 CNS = tested on: SNB-19 CNS
UO-31 renal = tested on: UO-31 renal
MOLT-4 leukemia = tested on: MOLT-4 leukemia
OVCAR-8 ovarian = tested on: OVCAR-8 ovarian
OVCAR-5 ovarian = tested on: OVCAR-5 ovarian
U251 CNS = tested on: U251 CNS
NCI-H522 lung = tested on: NCI-H522 lung
MDA-MB-435 = tested on: MDA-MB-435
OVCAR-4 ovarian = tested on: OVCAR-4 ovarian
SF-295 CNS = tested on: SF-295 CNS
EKVX NSCLC = tested on: EKVX NSCLC
HOP-62 NSCLC = tested on: HOP-62 NSCLC
PC-3 prostate = tested on: PC-3 prostate
BT-549 breast = tested on: BT-549 breast
786-0 renal = tested on: 786-0 renal
HL-60(TB) leukemia = tested on: HL-60(TB) leukemia
HOP-92 NSCLC = tested on: HOP-92 NSCLC
SW-620 colon = tested on: SW-620 colon
UACC-257 melanoma = tested on: UACC-257 melanoma
ACHN renal = tested on: ACHN renal
IGROV1 ovarian = tested on: IGROV1 ovarian
HS 578T breast = tested on: HS 578T breast
CCRF-CEM leukemia = tested on: CCRF-CEM leukemia
SF-268 CNS = tested on: SF-268 CNS
OVCAR-3 ovarian = tested on: OVCAR-3 ovarian
SK-OV-3 ovarian = tested on: SK-OV-3 ovarian
NCI-H226 lung = tested on: NCI-H226 lung
KM12 colon = tested on: KM12 colon
HCT-15 colon = tested on: HCT-15 colon
NCI/ADR-RES ovarian = tested on: NCI/ADR-RES ovarian
MALME-3M melanoma = tested on: MALME-3M melanoma
MCF7 breast = tested on: MCF7 breast
NCI-H460 lung = tested on: NCI-H460 lung
HCT-116 colon = tested on: HCT-116 colon
SK-MEL-2 melanoma = tested on: SK-MEL-2 melanoma
A549 NSCLC = tested on: A549 NSCLC
UACC-62 melanoma = tested on: UACC-62 melanoma
HT29 colon = tested on: HT29 colon
CAKI-1 renal = tested on: CAKI-1 renal
HCC-2998 colon = tested on: HCC-2998 colon
SF-539 CNS = tested on: SF-539 CNS
LOX IMVI melanoma = tested on: LOX IMVI melanoma
DU-145 prostate = tested on: DU-145 prostate
SNB-75 CNS = tested on: SNB-75 CNS
MDA-MB-231 breast = tested on: MDA-MB-231 breast
SR leukemia = tested on: SR leukemia
TK-10 renal = tested on: TK-10 renal
SK-MEL-28 melanoma = tested on: SK-MEL-28 melanoma
NCI-H23 lung = tested on: NCI-H23 lung
COLO 205 colon = tested on: COLO 205 colon
SN12C renal = tested on: SN12C renal
M14 melanoma = tested on: M14 melanoma
MDA-N = tested on: MDA-N
RPMI-8226 leukemia = tested on: RPMI-8226 leukemia

Measured: TGI

O=C(CNc1ccccc1[N+](=O)[O-])Nn1cnc2ccc(S(=O)(=O)Nc3ccccc3[N+](=O)[O-])cc2c1=O
> 100 µM: all assays above
